Results taken from patent US11753363B2, “13-oxidized ingenol derivative and use thereof” (Tianjin Pharmaceutical Da Ren Tang Group Corp., Ltd. …, priority 2017, dated 2023).
Converted amounts (≈) assume the structure as drawn.

Experiments:
Format in all cases: cell-based
[1] = tested on: SMMC-7721 (human liver cancer cells); experiment: Inhibition of proliferation of tumor cell lines (MTT), SMMC-7721; details: Homo sapiens, SMMC-7721, 72 h, read-out: IC50 value of compound for inhibition of proliferation of tumor cell lines, SMMC-7721
Description: (§1) In this example, the inhibitory activity of compounds of the present invention against proliferation of seven human tumor cell lines and mouse B16-F10 melanoma cells was tested in vitro, and the IC50 value (50% inhibitory concentration) of compounds against each tumor cell line was calculated.
(§2) The seven human tumor cell lines are: MCF-7 (human breast cancer cells), LOVO (human colon cancer cells), A549 (human lung cancer cells), BGC-823 (human gastric cancer cells), SMMC-7721 (human liver cancer cells), K562 (human leukemia cells), and HeLa (human cervical cancer cells).
(§3) IC50 values of the compounds for A549, BGC-823, LOVO, MCF-7, SMMC-7721, HeLa, and B16-F10 cells were tested. The above cells were routinely cultured in 1640 nutrient solution containing 10% calf serum, with passage for 1 time every 2 days, and the cells in logarithmic growth phase were taken for experiments. After the A549, BGC-823, LOVO, MCF-7, SMMC-7721, HeLa and B16-F10 cells in logarithmic growth phase were subjected to 0.25% trypsin digestion, they were blown into a single cell suspension, and then the cell concentration was adjusted to about 1×10^5·mL^−1 using RPMI 1640 solution containing 10% calf serum. The cells were seeded in a 96-well culture plate at 100 μL per well, and cultured for 24 hours until the cells were attached. K562 cells were taken and centrifuged and diluted into 2×10^5·mL^−1 single cell suspension with RPMI 1640 solution containing 10% calf serum, and inoculated into a 96-well culture plate at 100 μL per well.
(§4) 100 μL of sample solution with different concentrations to be tested were added to the above 96-well plate, each concentration was added to 4 wells in parallel, and the cell control group was added with an equal volume of RPMI 1640 medium containing 10% calf serum to make a reaction volume of 200 μL. After incubating in an incubator at 37° C., 5% CO2 for 72 h, 10 μL of 5 mg·mL^−1 MTT solution was added to each well, and incubated at 37° C. for 4 h. The supernatant was carefully aspirated, 180 μL of DMSO was added to each well followed by shaking, and the absorbance (OD) value was measured at 570 nm on the microplate reader. The inhibition rate was calculated, and regression equation was established with the logarithmic value of the sample concentration and the inhibition rate (IR) to find the IC50 value of the compound against the cells to be tested. IR (%)=(1−OD value of the experimental group/OD value of the cell control group)×100%

[2] = tested on: K562 (human leukemia cells); experiment: Inhibition of proliferation of tumor cell lines (MTT), K562; details: Homo sapiens, K562, 72 h, read-out: IC50 value of compound for inhibition of proliferation of tumor cell lines, K562
Description: as §1, §2, §3, §4

[3] = tested on: BGC-823 (human gastric cancer cells); experiment: Inhibition of proliferation of tumor cell lines (MTT), BGC-823; details: Homo sapiens, BGC-823, 72 h, read-out: IC50 value of compound for inhibition of proliferation of tumor cell lines, BGC-823
Description: as §1, §2, §3, §4

[4] = tested on: LOVO (human colon cancer cells); experiment: Inhibition of proliferation of tumor cell lines (MTT), LOVO; details: Homo sapiens, 72 h, read-out: IC50 value of compound for inhibition of proliferation of tumor cell lines, LOVO
Description: as §1, §2, §3, §4

[5] = tested on: A549 (human lung cancer cells); experiment: Inhibition of proliferation of tumor cell lines (MTT), A549; details: Homo sapiens, A549, 72 h, read-out: IC50 value of compound for inhibition of proliferation of tumor cell lines, A549
Description: as §1, §2, §3, §4

[6] = tested on: MCF-7 (human breast cancer cells); experiment: Inhibition of proliferation of tumor cell lines (MTT), MCF-7; details: Homo sapiens, MCF7, MCF-7, 72 h, read-out: IC50 value of compound for inhibition of proliferation of tumor cell lines, MCF-7
Description: as §1, §2, §3, §4

[7] = tested on: HeLa (human cervical cancer cells); experiment: Inhibition of proliferation of tumor cell lines (MTT), HeLa; details: Homo sapiens, 72 h, read-out: IC50 value of compound for inhibition of proliferation of tumor cell lines, HeLA
Description: as §1, §2, §3, §4

[8] = tested on: neutrophilic granulocytes; experiment: Neutrophil oxidative burst (luminol chemiluminescence); details: Neutrophil; 3 μg/mL; rat neutrophils; (Csample−Ccontrol)/Ccontrol×100%; read-out: Efficiency of compounds in stimulating neutrophil oxidative burst
Description: This example investigated the effect of compound on neutrophil oxidative burst and calculated the efficiency of each compound in stimulating neutrophil oxidative burst.
Blood was taken from the abdominal aorta of rat. The neutrophilic granulocytes were isolated by the operational procedure of the rat peripheral blood neutrophil isolation kit. The neutrophilic granulocytes were re-suspended by Hanks, and were plated in a 96-well white plate at 1×10^5 cells/well, 80 μL/well; 1 mM of Luminol was added at 10 μL/well; 10 μL of the sample was added to each well, and the degree of oxidative burst was evaluated by chemiluminescence. Calculation formula of Efficiency: Efficiency (%)=(Csample−Ccontrol)/Ccontrol×100%

Structure (SMILES)	IC50 [1] [µg/mL]	IC50 [2] [µg/mL]	IC50 [3] [µg/mL]	IC50 [4] [µg/mL]	IC50 [5] [µg/mL]	IC50 [6] [µg/mL]	IC50 [7] [µg/mL]	activation at 3 µg/mL [8] [%]
CCCCCCCCCCCC(=O)O[C@@]12C[C@@H](C)[C@]34C=C(C)[C@H](O)[C@@]3(O)[C@H](O)C(C)=C[C@H](C4=O)[C@@H]1C2(C)C [Compound 1d, 20-deoxy-13-O-dodecanoyl-ingenol]	31.5 (≈ 59.4 µM)	6.88 (≈ 13 µM)	15.4 (≈ 29 µM)	19.2 (≈ 36.2 µM)	26.8 (≈ 50.5 µM)	29.2 (≈ 55 µM)		
C/C=C(/C)C(=O)OCC1=C[C@@H]2C(=O)[C@]3(C=C(C)[C@H](OC(=O)/C(C)=C\C)[C@@]3(O)[C@@H]1O)[C@H](C)C[C@]1(OC(=O)CCCCCCCCCCC)[C@H]2C1(C)C [Compound 15a, 3,20-O-diangeloyl-13-O-dodecanoyl-ingenol]	26.9 (≈ 37.8 µM)	3.22 (≈ 4.53 µM)	> 100	> 100	> 100	> 100		
CCCCCCCCCCCC(=O)O[C@@]12C[C@@H](C)[C@]34C=C(C)[C@H](O)[C@@]3(O)[C@H](O)C(CO)=C[C@H](C4=O)[C@@H]1C2(C)C [Compound 1c, 13-O-dodecanoyl-ingenol]	6.49 (≈ 11.9 µM)	5.51 (≈ 10.1 µM)	6.19 (≈ 11.3 µM)	8.97 (≈ 16.4 µM)	11.1 (≈ 20.3 µM)	6.36 (≈ 11.6 µM)	15.1 (≈ 27.6 µM)	
CCCCCCCCCCCC(=O)O[C@@]12C[C@@H](C)[C@]34C=C(C)[C@@H]5OC(C)(C)O[C@@]53[C@H](O)C(CO)=C[C@H](C4=O)[C@@H]1C2(C)C [Compound 2c, 13-O-dodecanoyl-ingenol 3,4-acetonide]	8.21 (≈ 14 µM)	0.42 (≈ 0.716 µM)	5.3 (≈ 9.03 µM)	10.3 (≈ 17.6 µM)	9.59 (≈ 16.3 µM)	8.89 (≈ 15.1 µM)		64.6
CCCCCCCCCC(=O)O[C@@]12C[C@@H](C)[C@]34C=C(C)[C@H](O)[C@@]3(O)[C@H](O)C(CO)=C[C@H](C4=O)[C@@H]1C2(C)C [Compound 1a, 13-O-decanoyl-ingenol]	19.5 (≈ 37.6 µM)	0.7 (≈ 1.35 µM)	15 (≈ 28.9 µM)	9.77 (≈ 18.8 µM)	15.1 (≈ 29.1 µM)	13.8 (≈ 26.6 µM)	29.1 (≈ 56.1 µM)	65.2
CCCCCCCCCCCC(=O)O[C@@]12C[C@@H](C)[C@]34C=C(C)[C@H](O)[C@@]3(O)[C@@H]3OC(C)(C)OCC3=C[C@H](C4=O)[C@@H]1C2(C)C [Compound 2b, 13-O-dodecanoyl-ingenol 5,20-acetonide]	15.2 (≈ 25.9 µM)	0.85 (≈ 1.45 µM)	17.8 (≈ 30.3 µM)	23 (≈ 39.2 µM)	15 (≈ 25.6 µM)	13.7 (≈ 23.3 µM)		
CCCCC/C=C/C=C/C(=O)O[C@@]12C[C@@H](C)[C@]34C=C(C)[C@H](O)[C@@]3(O)[C@H](O)C(CO)=C[C@H](C4=O)[C@@H]1C2(C)C [Compound 1b, 13-O-(2′E,4′E-decadienoyl)-ingenol]	8.01 (≈ 15.6 µM)	8.97 (≈ 17.4 µM)	10.6 (≈ 20.6 µM)	12.9 (≈ 25.1 µM)	12.8 (≈ 24.9 µM)	11.8 (≈ 22.9 µM)		
CC1=C[C@]23C(=O)[C@@H](C4OC4(C)[C@@H](O)[C@]2(O)[C@H]1O)[C@H]1C(C[C@H]3C)C1(C)C (stereo partly drawn) [Compound 1e, 6,7-epoxy-20-deoxy-ingenol]	> 200	5.52 (≈ 15.8 µM)	> 200	> 200	> 200	> 200		
CCCCCC(=O)O[C@@]12C[C@@H](C)[C@]34C=C(C)[C@H](O)[C@@]3(O)[C@H](O)C(CO)=C[C@H](C4=O)[C@@H]1C2(C)C [Compound 6, 13-O-n-hexanoyl-ingenol]								52.2
CCCCCCCCCCCC(=O)O[C@@]12C[C@@H](C)[C@]34C=C(C)[C@H](O)[C@@]3(O)[C@H](O)C3(COC(=O)C(C)C(C)C)OC3[C@H](C4=O)[C@@H]1C2(C)C (stereo partly drawn) [Compound 1f, 6,7-epoxy-20-O-(2,3-dimethylbutyryl)-13-O-dodecanoyl-ingenol]							16.8 (≈ 25.4 µM)	
